Source: US20130096054A1, “LATENT HUMAN IMMUNODEFICIENCY VIRUS REACTIVIATION” (priority 2010, published 2013)

Legend:
[1] = system: latently HIV-1 infected reporter T cell lines (5F3, 8E12, CA5 and 12D4); assay: HIV-1 reactivation in latently HIV-1 infected reporter T cell lines (EGFP, flow cytometry); assay type: cell-based
Protocol: FIGS. 1A and 1B show culture supernatants from Massilia timonae reactivate latent HIV-1 infection. […] Untreated control cells and HRF-treated cells were subjected to flow cytometric analysis to determine enhanced green fluorescent protein (EGFP) expression as a direct and quantitative marker of HIV-1 expression 24 hours post stimulation. FSC/SSC dot plots are represented to evaluate cell viability as a function of changes in the FSC (cell size)—SSC (granularity) phenotype of the cells. FIG. 1B is a histogram showing the reproducibility of the observed HIV-1 reactivation. Three independent preparations of HRF (batches HRF1-3) on four different latently infected T cell lines (5F3, 8E12, CA5 and 12D4) were tested. The percentage of EGFP positive cells following stimulation is depicted in the histogram. Cell culture supernatants of Pseudomonas aeruginosa cultures, grown under similar conditions, were used as specificity controls.

[2] = system: latently HIV-1 infected monocytic THP89GFP cells; assay: HIV-1 reactivation in latently HIV-1 infected monocytic THP89GFP cells; assay type: cell-based

## lipopolysaccharide
[1]
  reactivation of latent HIV-1 infection: only reactivated HIV-1 infection in the latently HIV-1 infected monocytic THP89GFP cells
[2]
  reactivation of latent HIV-1 infection: reactivated HIV-1 infection
